# Target: T1, human peroxiredoxin 5 (PRDX5) (Homo sapiens, UniProt P30044)
# T1 construct: 6xHis-tagged, pQE-30, E. coli M15, 15N-labelled for HSQC; reduced with DTT
# T1 sequence (P30044 54-214): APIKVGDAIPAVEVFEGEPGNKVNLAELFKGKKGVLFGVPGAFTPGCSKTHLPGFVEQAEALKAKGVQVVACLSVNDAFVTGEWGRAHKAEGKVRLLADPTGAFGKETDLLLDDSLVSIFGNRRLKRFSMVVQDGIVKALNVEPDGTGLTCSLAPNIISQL
# Experiment: […]-HSQC NMR titration (combined CSP fit)
# Type: binding
structure (smiles),measurement,value
"Oc1cccc(-c2ccccc2)c1O [compound 5, 2,3 dihydroxy-biphenyl]",Kd,390 ± 50 µM

# — paper PMC4099364, “Comparing Binding Modes of Analogous Fragments Using NMR in Fragment-Based Drug Design: Application to PRDX5” (PLoS ONE, 2014)
